Test results published in the NIST ThermoML archive (doi:10.1016/j.fluid.2004.11.019).
± gives the expanded uncertainty stated by the source.

Conditions: Liquid

CCO [ethanol]
mass density [kg/m3]
Conditions | 100 kPa | 10000 kPa | 20000 kPa | 30000 kPa | 40000 kPa
298.15 K | 785.7 ± 0.4 | 794 ± 0.4 | 801.9 ± 0.6 | 808.9 ± 0.7 | 815.7 ± 0.8
323.15 K | 763.7 ± 0.4 | 773.4 ± 0.5 | 782.3 ± 0.6 | 790.3 ± 0.7 | 797.7 ± 0.9
348.15 K | 739.4 ± 0.4 | 751.2 ± 0.5 | 761.2 ± 0.6 | 770.3 ± 0.8 | 778.6 ± 0.9
